Laboratory results reported in patent publication US20210393677A1, “COMPOUNDS FOR MODULATION AND AS FUNCTIONAL REPLACEMENT OF ALPHAKETOGLUTARIC ACID (2OG)-DEPENDENT OXYGENASES” (priority 2018, published 2021).

Columns and labels:
[1] = tested on: TET enzyme; assay: cell-free TET assay (co-substrate function); type: biochemical; settings: FIG. 16B
[2] = tested on: TET enzymes in IDH1R132H/+ cells; assay: activation of TET enzymes in IDH1R132H/+ cells (5-hmdC levels); type: cell-based, human; settings: IDH1R132H/+ cells (FIG. 11)
Protocol: Likewise, promotion of the secondary apoptosis occurs, which indicates the recovery of the cell function on a molecular level (cf. FIG. 11). The native 2-OG again enters into the normal cell metabolism and thus again inhibits the malignant derailment of the cell (secondary way of formation of 2-OG from glutamic acid is omitted).
Samples of genomic DNA (20 μg) were hydrolyzed with micrococcal nuclease from Staphylococcus aureus, bovine spleen phosphodiesterase, and bovine intestinal alkaline phosphatase (all from Sigma-Aldrich, Taufkirchen, Germany) to 2′-deoxynucleosides, as described, with modifications of the application. […] Then, DNA hydrolysates were centrifuged (5 min, 16,000×g), and 10 μL of the supernatants were used for the quantification of dC and 5-mdC stable marked references.
Compounds [15N2,13Cl]dC and 5-mdC-d3 (both from Toronto Research Chemicals, Toronto, Canada). […] Chromatographic conditions and settings of the ESI source were as described for the quantification of dC and 5-mdC [62]. […] The quantification of 5-hmdC with respect to the stable isotope-marked standard that were both eluted at 4.9 min from the LC column (the retention times of dC and 5-mdC were 4.7 or 6.0 min, respectively), was performed with the aid of the Multiple Reaction Monitoring (MRM) approach. […] For clear identification, further mass transitions were recorded. […]

[3] = tested on: HCT116 IDH1+/+ cells; assay: 2-HG content by LC-MS/MS in HCT116 IDH1+/+ cells; type: cell-based, human; settings: ML309 10 μM, untreated 0.15
Protocol: Es is known that IDH1 mutations are connected with a modified IDH1 enzyme function that induces the excess production of neomorphous metabolite 2-hydroxyglutarate. In order to validate the increased frequency of 2-HG in HCT116 IDH1R132H/+ cells compared to HCT116 IDH1+/+ cells, the 2-HG content was analyzed by means of LC-MS/MS analysis (illustration 1). Intracellular 2-HG in IDH1R132H/+ cells was 56 times higher than in IDH1 wildtype cells (8.5 nmol/mg protein or 0.15 nmol/mg protein; 56 times higher; p<0.0001). Furthermore, the treatment with the IDH1 inhibitor ML309 (10 μM) led to a significant reduction of the oncometabolite 2-HG in the HCT116 IDH1R132H/+ cells to (0.3 nmol/mg protein) and to a lower degree of IDH1+/+ (0.04 nmol/mg protein) (Fig.). In contrast, DKA produced only minimum changes in the 2-HG concentrations in the mutated cells (5.9 nmol/mg protein). […] FIG. 10.
HCT116 (ATCC-Nr. CCL-247), a human colorectal carcinoma cell line, was acquired from the American Type Culture Collection (ATCC; https://www.atcc.org/). Human colon carcinoma cells HCT116 IDH1+/+ and HCT116 IDH1R132H/+ come from Horizon Discovery and were let us for test purposes. The cells were cultured in Dulbecco's Modified Eagle's Medium (DMEM) with 2 mM L-glutamine, supplemented with 10% fetal bovine serum (FBS), 45 IU/ml penicillin and 45 IU/ml streptomycin. […]

SMILES | effect in the assay [1] | activation of the inhibited TET enzymes [2] | intracellular 2-HG [3] [nmol/mg protein]
O=C(O)C(=O)C(O)C(O)C(O)CO (stereo not drawn) [2-ketogulonic acid] | dose-dependent effect |  | 
Cc1ccccc1C(C(=O)NC1CCCC1)N(C(=O)Cn1cnc2ccccc21)c1cccc(F)c1 (stereo not drawn) [ML309, reference compound] |  | does not activate | 0.04
